Read-outs that look alike come from different tables or passages of the source.
Columns and labels:
[1] = Plasma metabolites and pharmacokinetics after single intake of lemon or orange extract (UPLC-ESI-QTOF-MS, non-compartmental analysis); type: in vivo, human; conditions: for Occurrence Plasma LE (number of volunteers in whom the metabolite was detected): after consuming lemon extract; for Occurrence Plasma LE (number of volunteers in whom the metabolite was detected) / Occurrence Plasma OE (number of volunteers in whom the metabolite was detected): n = 16 volunteers; for Occurrence Plasma OE (number of volunteers in whom the metabolite was detected): after consuming orange extract; for Tmax / Cmax / AUC(0-t): mean ± SD; for AUC(0-t): read-out: AUC0-t
Text: Secondary endpoints involved the evaluation of post-prandial changes in several biomarkers dealing with metabolism, inflammation, and oxidative stress after a high-fat-high-sugars meal. The design was a randomized pharmacokinetic, double-blind, crossover, single-dose trial consisted of 2 test-phases. The volunteers were randomly allocated into two groups using a computerized random number list. Each group consumed one of the citrus extracts by following a test-phase that lasted for 1 day for blood sampling and urine collection, a 2-week washout period between each test phase, and crossover before consuming the other extract. The volunteers were instructed to avoid the consumption of flavanone-containing products, from a list provided by the researchers, for 1 week before the study and during the wash-out phase (citrus fruit juices, tomatoes, tomato-based sauces (like ‘ketchup’), peppers, almonds, etc.). […] The 3 capsules provided a total of 1.95 g orange extract, containing 260 mg hesperidin, and 3.1 g lemon extract, containing 260 mg eriocitrin. […] Plasma samples were obtained by centrifugation of peripheral venous blood at 14,000× g for 15 min at 4 °C and immediately frozen at −80 °C. Glucose, total cholesterol, HDL-cholesterol, LDL-cholesterol, triglycerides, insulin, homeostatic model assessment insulin resistance (HOMA-IR), gamma-glutamyl transferase (GGT), and alanine aminotransferase (ALT) were determined as previously reported. […] A previously validated method for analyzing phenolic metabolites in biological samples, including flavanone-derived metabolites, was used. […] After centrifugation at 14,000× g for 10 min at 4 °C, the supernatant was evaporated in a speed vacuum concentrator. Finally, samples were re-suspended in 100 µL of methanol, filtered through a 0.22 µm cellulose filters before analysis by UPLC- ESI-QTOF-MS. A targeted screening strategy was applied to identify metabolites that could be present after consuming the citrus extracts. Twenty-eight possible compounds were browsed in all the samples. The list of compounds included the polyphenols present in the extracts, with particular focus on the flavanone rutinosides hesperidin and eriocitrin, their respective aglycones hesperetin, and eriodictyol, as well as their derived phase-II conjugates (glucuronides, sulfates, sulfoglucuronides, etc.). The exact mass of each proposed compound was extracted using an extraction window of 0.01 m/z. The metabolites hesperetin 7-O-glucuronide, hesperetin 3′-O-glucuronide, hesperetin 3-O-sulfate, naringenin 4′-O-glucuronide, and naringenin 7′-O-glucuronide were quantified with their corresponding standards. […] The parent phenolic compounds were quantified with their corresponding standards. In the case of some relevant conjugated metabolites, which standards were not available (eriodictyol and homoeriodictyol conjugates), their quantification was achieved by using relative response factors (RRFs) as previously described. Briefly, RRFs are useful to check the different responses of metabolites in the mass spectrometer vs. their UV signal. While the ionization response of free vs. conjugated forms is usually very different, their UV signal response is quite similar. To this purpose, we injected in a HPLC-DAD-ESI-Q (MS) the plasma samples (n = 5) with the highest concentrations of those conjugated metabolites. Concentrations were calculated by integrating the area from their corresponding UV peaks and compared with the UV peak area of a known concentration of their corresponding available parent compounds (eriodictyol and homoeriodictyol). The concentrations calculated were used to compare the MS response for each conjugated-aglycone pair. Statistical analyses were carried out using the SPSS Software, version 23.0 (SPSS Inc., Chicago, IL, USA). Data are expressed as mean ± SD. The empirical distribution of data with the normality assumption was tested with the Shapiro-Wilk test. […]

[2] = Urinary excretion of flavanone-derived metabolites after single intake of lemon or orange extract (UPLC-ESI-QTOF-MS); type: in vivo, human; conditions: for Urinary excretion F1: urine fraction 0-4 h; for Urinary excretion F1 / Urinary excretion Total F / Urinary excretion F2 / Urinary excretion F3 / Urinary excretion F4: mean ± SD; for Urinary excretion Total F: sum of fractions F1-F4 (24 h); for Urinary excretion F2: urine fraction 4-8 h; for Urinary excretion F3: urine fraction 8-10 h; for Urinary excretion F4: urine fraction 10-24 h; for Occurrence Urine LE (number of volunteers in whom the metabolite was detected): after consuming lemon extract; for Occurrence Urine LE (number of volunteers in whom the metabolite was detected) / Occurrence Urine OE (number of volunteers in whom the metabolite was detected): n = 16 volunteers; for Occurrence Urine OE (number of volunteers in whom the metabolite was detected): after consuming orange extract
Text: Secondary endpoints involved the evaluation of post-prandial changes in several biomarkers dealing with metabolism, inflammation, and oxidative stress after a high-fat-high-sugars meal. The design was a randomized pharmacokinetic, double-blind, crossover, single-dose trial consisted of 2 test-phases. The volunteers were randomly allocated into two groups using a computerized random number list. Each group consumed one of the citrus extracts by following a test-phase that lasted for 1 day for blood sampling and urine collection, a 2-week washout period between each test phase, and crossover before consuming the other extract. The volunteers were instructed to avoid the consumption of flavanone-containing products, from a list provided by the researchers, for 1 week before the study and during the wash-out phase (citrus fruit juices, tomatoes, tomato-based sauces (like ‘ketchup’), peppers, almonds, etc.). […] The 3 capsules provided a total of 1.95 g orange extract, containing 260 mg hesperidin, and 3.1 g lemon extract, containing 260 mg eriocitrin. […] Untreated urine samples were aliquoted and frozen at −80 °C for up to 4 weeks until analyses, avoiding freeze-thaw cycles to avoid metabolites’ deconjugation. Moreover, three measurements of blood pressure and heart rate were taken before each time-point of blood withdrawal. […] A previously validated method for analyzing phenolic metabolites in biological samples, including flavanone-derived metabolites, was used. […] After centrifugation at 14,000× g for 10 min at 4 °C, the supernatant was evaporated in a speed vacuum concentrator. Finally, samples were re-suspended in 100 µL of methanol, filtered through a 0.22 µm cellulose filters before analysis by UPLC- ESI-QTOF-MS. […] A targeted screening strategy was applied to identify metabolites that could be present after consuming the citrus extracts. Twenty-eight possible compounds were browsed in all the samples. The list of compounds included the polyphenols present in the extracts, with particular focus on the flavanone rutinosides hesperidin and eriocitrin, their respective aglycones hesperetin, and eriodictyol, as well as their derived phase-II conjugates (glucuronides, sulfates, sulfoglucuronides, etc.). The exact mass of each proposed compound was extracted using an extraction window of 0.01 m/z. The metabolites hesperetin 7-O-glucuronide, hesperetin 3′-O-glucuronide, hesperetin 3-O-sulfate, naringenin 4′-O-glucuronide, and naringenin 7′-O-glucuronide were quantified with their corresponding standards. […] The parent phenolic compounds were quantified with their corresponding standards. In the case of some relevant conjugated metabolites, which standards were not available (eriodictyol and homoeriodictyol conjugates), their quantification was achieved by using relative response factors (RRFs) as previously described. Briefly, RRFs are useful to check the different responses of metabolites in the mass spectrometer vs. their UV signal. While the ionization response of free vs. conjugated forms is usually very different, their UV signal response is quite similar. To this purpose, we injected in a HPLC-DAD-ESI-Q (MS) the plasma samples (n = 5) with the highest concentrations of those conjugated metabolites. Concentrations were calculated by integrating the area from their corresponding UV peaks and compared with the UV peak area of a known concentration of their corresponding available parent compounds (eriodictyol and homoeriodictyol). The concentrations calculated were used to compare the MS response for each conjugated-aglycone pair.

[3] = human, oral, 3.1 g, after lemon extract
[4] = human, oral, 3.1 g, after lemon extract, read-out: Tmax
[5] = lemon extract (3.1 g, 260 mg eriocitrin)
[6] = orange extract (1.95 g, 260 mg hesperidin)
[7] = human, oral, 1.95 g, after orange (hesperidin) extract

| SMILES | Occurrence Plasma LE (number of volunteers in whom the metabolite was detected) [1] | Occurrence Plasma OE (number of volunteers in whom the metabolite was detected) [1] | Tmax ([1]; after lemon extract) [h] | Cmax [1, 3] [nM] | AUC(0-t) [1, 3] [µM·h] | Tmax [1, 4] [h] | Urinary excretion F1 [2, 5] [µg/mg creatinine] | Urinary excretion Total F ([2]; lemon extract) [µg/mg creatinine] | Urinary excretion F2 ([2]; lemon extract) [µg/mg creatinine] | Urinary excretion F3 ([2]; lemon extract) [µg/mg creatinine] | Urinary excretion F4 ([2]; lemon extract) [µg/mg creatinine] | Urinary excretion Total F ([2]; orange extract) [µg/mg creatinine] | Urinary excretion F2 ([2]; orange extract) [µg/mg creatinine] | Urinary excretion F3 ([2]; orange extract) [µg/mg creatinine] | Urinary excretion F4 ([2]; orange extract) [µg/mg creatinine] | Occurrence Urine LE (number of volunteers in whom the metabolite was detected) [2] | Occurrence Urine OE (number of volunteers in whom the metabolite was detected) [2] | Urinary excretion F1 [2, 6] [µg/mg creatinine] | other results |
| --- | --- | --- | --- | --- | --- | --- | --- | --- | --- | --- | --- | --- | --- | --- | --- | --- | --- | --- | --- |
| O=C1CC(c2ccc(O)c(O)c2)Oc2cc(OC3OC(C(=O)O)C(O)C(O)C3O)cc(O)c21 (stereo not drawn) [M1, Eriodictyol glucuronide-1] | 16 | 3 | 5.9 ± 2.4 | 104 ± 85.8 | 0.283 ± 0.271 | 6 | 3.2 ± 5.9 | 18.0 ± 28.4 | 9.6 ± 15.5 | 4.5 ± 6.2 | 0.7 ± 0.7 | 0.6 ± 0.4 | 0.4 ± 0.3 | 0.1 ± 0.1 | 0.05 ± 0.05 | 16 | 5 | – | – |
| O=C1CC(c2ccc(O)c(OC3OC(C(=O)O)C(O)C(O)C3O)c2)Oc2cc(O)cc(O)c21 (stereo not drawn) [M2, Eriodictyol glucuronide-2] | 16 | 7 | 5.9 ± 2.4 | 871 ± 868 | 3.22 ± 4.12 | 6 | 6.4 ± 11.0 | 46.6 ± 53.6 | 18.0 ± 17.2 | 18.1 ± 19.7 | 4.2 ± 5.7 | 2.5 ± 4.9 | 0.5 ± 0.8 | 0.5 ± 0.6 | 1.4 ± 3.4 | 16 | 10 | 0.1 ± 0.1 | – |
| O=C1CC(c2ccc(O)cc2)Oc2cc(OC3OC(C(=O)O)C(O)C(O)C3O)cc(O)c21 (stereo not drawn) [M3, Naringenin 7-O-glucuronide] | 16 | 14 | 5.4 ± 2.5 | 56.7 ± 44.2 | 0.203 ± 0.187 | 5.5 | 1.0 ± 0.7 | 5.7 ± 6.9 | 2.6 ± 4.0 | 1.7 ± 1.9 | 0.3 ± 0.3 | 0.7 ± 1.5 | 0.2 ± 0.6 | 0.2 ± 0.2 | 0.2 ± 0.3 | 16 | 16 | 0.1 ± 0.1 | Tmax ([1]; after orange (hesperidin) extract): 7.3 ± 2.2 h; Cmax [1, 7]: 4.7 ± 3.6 nM; AUC(0-t) [1, 7]: 0.0188 ± 0.019 µM·h; Tmax ([1]; human, oral, 1.95 g, after orange (hesperidin) extract, read-out: Tmax): 7.5 h |
| O=C1CC(c2ccc(OC3OC(C(=O)O)C(O)C(O)C3O)c(O)c2)Oc2cc(O)cc(O)c21 (stereo not drawn) [M4, Eriodictyol glucuronide-3] | 16 | 7 | 5.9 ± 2.6 | 639 ± 802 | 2.29 ± 3.49 | 6 | 9.4 ± 16.9 | 75.1 ± 128 | 33.8 ± 64.1 | 27.7 ± 40.1 | 4.3 ± 6.4 | 3.4 ± 6.2 | 0.5 ± 0.9 | 0.7 ± 0.7 | 2.1 ± 4.5 | 16 | 11 | 0.1 ± 0.2 | – |
